pIC50, pKi: −log10 of the molar value.
Target: T1, Leukotriene C4 synthase (Cavia porcellus, UniProt A6XA80);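 note: enzyme inhibition assay of leukotriene C4 synthase, using LTA4 as the substrate; in other assays of this panel Not Active means under 50% inhibition at 10 µM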
T1 sequence (A6XA80 whole entry): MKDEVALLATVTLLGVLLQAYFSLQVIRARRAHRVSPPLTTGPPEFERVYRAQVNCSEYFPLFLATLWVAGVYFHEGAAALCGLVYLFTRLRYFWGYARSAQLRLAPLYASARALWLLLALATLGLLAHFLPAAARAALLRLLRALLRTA
Assay type: tissue-based, Lung
Conditions: not given

Compound | IC50
CN1C2CCCC1CC(NC(=O)c1nn(C)c3ccccc13)C2 (centres undefined) [GRANISETRON] | Not Active
Nc1nc2c(c(=O)[nH]1)N(C=O)C(CNc1ccc(C(=O)N[C@@H](CCC(=O)O)C(=O)O)cc1)CN2 (some centres undefined) [LEUCOVORIN] | Not Active
C[C@@H](O)[C@H]1C(=O)N2C(C(=O)O)=C(S[C@@H]3CN[C@H](C(=O)N(C)C)C3)[C@H](C)[C@H]12 [MEROPENEM] | Not Active
CC[C@@H](CO)NC(=O)[C@@H]1C=C2c3cccc4c3c(cn4C)C[C@H]2N(C)C1 [METHYSERGIDE] | Not Active
CCN(CC)CC#CCOC(=O)C(O)(c1ccccc1)C1CCCCC1 (centres undefined) [OXYBUTYNIN] | Not Active
O=P(O)(O)C(O)(Cc1cccnc1)P(=O)(O)O [RISEDRONIC ACID] | Not Active
CN(CCOc1ccc(CC2SC(=O)NC2=O)cc1)c1ccccn1 (centres undefined) [ROSIGLITAZONE] | Not Active
C=C(C)[C@H]1Cc2c(ccc3c2O[C@@H]2COc4cc(OC)c(OC)cc4[C@@H]2C3=O)O1 [ROTENONE] | Not Active
C#CCN(C)[C@H](C)Cc1ccccc1 [SELEGILINE] | Not Active
C[C@]12CC[C@H]3[C@@H](CCC4=CC(=O)CC[C@@]43C)[C@@H]1CC[C@@H]2O [TESTOSTERONE] | Not Active
O=c1n(CCCN2CCN(c3cccc(Cl)c3)CC2)nc2ccccn12 [TRAZODONE] | Not Active

Target: T2, C-X-C chemokine receptor type 1 (Homo sapiens, UniProt P25024); note: in other assays of this panel Not Active means under 50% inhibition at 10 µM
T2 sequence (P25024 whole entry): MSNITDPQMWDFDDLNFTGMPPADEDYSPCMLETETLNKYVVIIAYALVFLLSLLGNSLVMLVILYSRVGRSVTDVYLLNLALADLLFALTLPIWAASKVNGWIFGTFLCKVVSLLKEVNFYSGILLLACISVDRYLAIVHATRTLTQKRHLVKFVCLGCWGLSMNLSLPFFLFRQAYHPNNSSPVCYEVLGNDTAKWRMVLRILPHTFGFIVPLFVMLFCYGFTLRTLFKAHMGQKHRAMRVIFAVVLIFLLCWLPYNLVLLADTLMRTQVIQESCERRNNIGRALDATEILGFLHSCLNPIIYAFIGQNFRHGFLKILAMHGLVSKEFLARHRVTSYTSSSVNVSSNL
Conditions: not given

Compound | IC50
CN1C2CCCC1CC(NC(=O)c1nn(C)c3ccccc13)C2 (centres undefined) [GRANISETRON] | Not Active
Nc1nc2c(c(=O)[nH]1)N(C=O)C(CNc1ccc(C(=O)N[C@@H](CCC(=O)O)C(=O)O)cc1)CN2 (some centres undefined) [LEUCOVORIN] | Not Active
C[C@@H](O)[C@H]1C(=O)N2C(C(=O)O)=C(S[C@@H]3CN[C@H](C(=O)N(C)C)C3)[C@H](C)[C@H]12 [MEROPENEM] | Not Active
CC[C@@H](CO)NC(=O)[C@@H]1C=C2c3cccc4c3c(cn4C)C[C@H]2N(C)C1 [METHYSERGIDE] | Not Active
CCN(CC)CC#CCOC(=O)C(O)(c1ccccc1)C1CCCCC1 (centres undefined) [OXYBUTYNIN] | Not Active
O=P(O)(O)C(O)(Cc1cccnc1)P(=O)(O)O [RISEDRONIC ACID] | Not Active
CN(CCOc1ccc(CC2SC(=O)NC2=O)cc1)c1ccccn1 (centres undefined) [ROSIGLITAZONE] | Not Active
C=C(C)[C@H]1Cc2c(ccc3c2O[C@@H]2COc4cc(OC)c(OC)cc4[C@@H]2C3=O)O1 [ROTENONE] | Not Active
C#CCN(C)[C@H](C)Cc1ccccc1 [SELEGILINE] | Not Active
C[C@]12CC[C@H]3[C@@H](CCC4=CC(=O)CC[C@@]43C)[C@@H]1CC[C@@H]2O [TESTOSTERONE] | Not Active
O=c1n(CCCN2CCN(c3cccc(Cl)c3)CC2)nc2ccccn12 [TRAZODONE] | Not Active

Test system: not listed separately
Assay: DRUGMATRIX: Potassium Channel [KATP] radioligand binding (ligand: [3H] Glyburide)
Assay type: cell membranes, Membrane
Conditions: hit-t15; Not Active = under 50% inhibition at 10 µM

Compound | IC50 | Ki
Nc1nc2c(c(=O)[nH]1)N(C=O)C(CNc1ccc(C(=O)N[C@@H](CCC(=O)O)C(=O)O)cc1)CN2 (some centres undefined) [LEUCOVORIN] | Not Active | Not Active
C[C@@H](O)[C@H]1C(=O)N2C(C(=O)O)=C(S[C@@H]3CN[C@H](C(=O)N(C)C)C3)[C@H](C)[C@H]12 [MEROPENEM] | Not Active | Not Active
O=P(O)(O)C(O)(Cc1cccnc1)P(=O)(O)O [RISEDRONIC ACID] | Not Active | Not Active
CN(CCOc1ccc(CC2SC(=O)NC2=O)cc1)c1ccccn1 (centres undefined) [ROSIGLITAZONE] | Not Active | Not Active
C=C(C)[C@H]1Cc2c(ccc3c2O[C@@H]2COc4cc(OC)c(OC)cc4[C@@H]2C3=O)O1 [ROTENONE] | Not Active | Not Active
C#CCN(C)[C@H](C)Cc1ccccc1 [SELEGILINE] | Not Active | Not Active

Target: Mitogen-activated protein kinase 14 (Homo sapiens, UniProt Q16539);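 note: inhibition of p38alpha enzyme activity in a biochemical kinase assay, with myelin basic protein serving as substrate; in other assays of this panel Not Active means under 50% inhibition at 10 µM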
Design: species or system Escherichia coli
Conditions: not given

Sequence of Mitogen-activated protein kinase 14 (Q16539 whole entry): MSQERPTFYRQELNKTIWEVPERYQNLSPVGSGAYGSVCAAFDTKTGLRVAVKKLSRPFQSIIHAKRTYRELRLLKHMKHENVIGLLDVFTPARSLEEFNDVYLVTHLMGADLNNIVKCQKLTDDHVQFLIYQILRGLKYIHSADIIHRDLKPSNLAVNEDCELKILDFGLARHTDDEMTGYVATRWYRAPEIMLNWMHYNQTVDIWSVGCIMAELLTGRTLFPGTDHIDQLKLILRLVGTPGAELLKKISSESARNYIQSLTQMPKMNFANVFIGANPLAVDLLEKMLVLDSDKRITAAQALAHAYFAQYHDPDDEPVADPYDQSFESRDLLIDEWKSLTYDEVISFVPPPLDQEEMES

Compound | IC50
CN1C2CCCC1CC(NC(=O)c1nn(C)c3ccccc13)C2 (centres undefined) [GRANISETRON] | Not Active
Nc1nc2c(c(=O)[nH]1)N(C=O)C(CNc1ccc(C(=O)N[C@@H](CCC(=O)O)C(=O)O)cc1)CN2 (some centres undefined) [LEUCOVORIN] | Not Active
C[C@@H](O)[C@H]1C(=O)N2C(C(=O)O)=C(S[C@@H]3CN[C@H](C(=O)N(C)C)C3)[C@H](C)[C@H]12 [MEROPENEM] | Not Active
CC[C@@H](CO)NC(=O)[C@@H]1C=C2c3cccc4c3c(cn4C)C[C@H]2N(C)C1 [METHYSERGIDE] | Not Active
CCN(CC)CC#CCOC(=O)C(O)(c1ccccc1)C1CCCCC1 (centres undefined) [OXYBUTYNIN] | Not Active
O=P(O)(O)C(O)(Cc1cccnc1)P(=O)(O)O [RISEDRONIC ACID] | Not Active
CN(CCOc1ccc(CC2SC(=O)NC2=O)cc1)c1ccccn1 (centres undefined) [ROSIGLITAZONE] | Not Active
C=C(C)[C@H]1Cc2c(ccc3c2O[C@@H]2COc4cc(OC)c(OC)cc4[C@@H]2C3=O)O1 [ROTENONE] | Not Active
C#CCN(C)[C@H](C)Cc1ccccc1 [SELEGILINE] | Not Active
C[C@]12CC[C@H]3[C@@H](CCC4=CC(=O)CC[C@@]43C)[C@@H]1CC[C@@H]2O [TESTOSTERONE] | Not Active
O=c1n(CCCN2CCN(c3cccc(Cl)c3)CC2)nc2ccccn12 [TRAZODONE] | Not Active

Test system: not listed separately
Assay: DRUGMATRIX: Serotonin (5-Hydroxytryptamine) 5-HT3 radioligand binding (ligand: [3H] GR-65630)
Assay type: cell membranes, Membrane
Conditions: hek293; Not Active = under 50% inhibition at 10 µM

Compound | IC50 | Ki
Nc1nc2c(c(=O)[nH]1)N(C=O)C(CNc1ccc(C(=O)N[C@@H](CCC(=O)O)C(=O)O)cc1)CN2 (some centres undefined) [LEUCOVORIN] | Not Active | Not Active
C[C@@H](O)[C@H]1C(=O)N2C(C(=O)O)=C(S[C@@H]3CN[C@H](C(=O)N(C)C)C3)[C@H](C)[C@H]12 [MEROPENEM] | Not Active | Not Active
O=P(O)(O)C(O)(Cc1cccnc1)P(=O)(O)O [RISEDRONIC ACID] | Not Active | Not Active
CN(CCOc1ccc(CC2SC(=O)NC2=O)cc1)c1ccccn1 (centres undefined) [ROSIGLITAZONE] | Not Active | Not Active
C=C(C)[C@H]1Cc2c(ccc3c2O[C@@H]2COc4cc(OC)c(OC)cc4[C@@H]2C3=O)O1 [ROTENONE] | Not Active | Not Active
C#CCN(C)[C@H](C)Cc1ccccc1 [SELEGILINE] | Not Active | Not Active
C[C@]12CC[C@H]3[C@@H](CCC4=CC(=O)CC[C@@]43C)[C@@H]1CC[C@@H]2O [TESTOSTERONE] | Not Active | Not Active

Target: T3, 5-hydroxytryptamine receptor 1A (Rattus norvegicus, UniProt P19327); note: in other assays of this panel Not Active means under 50% inhibition at 10 µM
T3 sequence (P19327 whole entry): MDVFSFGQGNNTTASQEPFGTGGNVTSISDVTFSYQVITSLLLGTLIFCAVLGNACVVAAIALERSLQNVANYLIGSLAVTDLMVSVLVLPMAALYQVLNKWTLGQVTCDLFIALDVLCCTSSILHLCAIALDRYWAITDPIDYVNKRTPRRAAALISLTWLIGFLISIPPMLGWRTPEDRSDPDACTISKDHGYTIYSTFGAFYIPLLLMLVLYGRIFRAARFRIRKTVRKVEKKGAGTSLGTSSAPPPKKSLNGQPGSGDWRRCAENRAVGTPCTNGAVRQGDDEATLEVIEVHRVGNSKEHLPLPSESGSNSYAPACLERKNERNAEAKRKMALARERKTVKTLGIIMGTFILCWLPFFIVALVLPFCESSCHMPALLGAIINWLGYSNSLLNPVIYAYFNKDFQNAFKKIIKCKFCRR
Assay type: cell membranes, CHO-K1, Membrane
Conditions: cho-k1

Compound | IC50
CN1C2CCCC1CC(NC(=O)c1nn(C)c3ccccc13)C2 (centres undefined) [GRANISETRON] | Not Active
Nc1nc2c(c(=O)[nH]1)N(C=O)C(CNc1ccc(C(=O)N[C@@H](CCC(=O)O)C(=O)O)cc1)CN2 (some centres undefined) [LEUCOVORIN] | Not Active
C[C@@H](O)[C@H]1C(=O)N2C(C(=O)O)=C(S[C@@H]3CN[C@H](C(=O)N(C)C)C3)[C@H](C)[C@H]12 [MEROPENEM] | Not Active
CCN(CC)CC#CCOC(=O)C(O)(c1ccccc1)C1CCCCC1 (centres undefined) [OXYBUTYNIN] | Not Active
O=P(O)(O)C(O)(Cc1cccnc1)P(=O)(O)O [RISEDRONIC ACID] | Not Active
CN(CCOc1ccc(CC2SC(=O)NC2=O)cc1)c1ccccn1 (centres undefined) [ROSIGLITAZONE] | Not Active
C=C(C)[C@H]1Cc2c(ccc3c2O[C@@H]2COc4cc(OC)c(OC)cc4[C@@H]2C3=O)O1 [ROTENONE] | Not Active
C#CCN(C)[C@H](C)Cc1ccccc1 [SELEGILINE] | Not Active
C[C@]12CC[C@H]3[C@@H](CCC4=CC(=O)CC[C@@]43C)[C@@H]1CC[C@@H]2O [TESTOSTERONE] | Not Active

Same assay, conditions: read-out: IC50

Compound | pIC50
CC[C@@H](CO)NC(=O)[C@@H]1C=C2c3cccc4c3c(cn4C)C[C@H]2N(C)C1 [METHYSERGIDE] | 7.27

Same assay, conditions: read-out: Ki

Compound | pKi
CC[C@@H](CO)NC(=O)[C@@H]1C=C2c3cccc4c3c(cn4C)C[C@H]2N(C)C1 [METHYSERGIDE] | 7.51

Test system: not listed separately
Assay: DRUGMATRIX: Sodium/nucleoside co-transporter radioligand binding (ligand: nitrobenzylthioinosine)
Assay type: cell membranes, Cavia porcellus, Dunkin-Hartley, Cerebral cortex, Membrane
Conditions: Not Active = under 50% inhibition at 10 µM

Compound | IC50 | Ki
Nc1nc2c(c(=O)[nH]1)N(C=O)C(CNc1ccc(C(=O)N[C@@H](CCC(=O)O)C(=O)O)cc1)CN2 (some centres undefined) [LEUCOVORIN] | Not Active | Not Active
C[C@@H](O)[C@H]1C(=O)N2C(C(=O)O)=C(S[C@@H]3CN[C@H](C(=O)N(C)C)C3)[C@H](C)[C@H]12 [MEROPENEM] | Not Active | Not Active
O=P(O)(O)C(O)(Cc1cccnc1)P(=O)(O)O [RISEDRONIC ACID] | Not Active | Not Active
CN(CCOc1ccc(CC2SC(=O)NC2=O)cc1)c1ccccn1 (centres undefined) [ROSIGLITAZONE] | Not Active | Not Active
C=C(C)[C@H]1Cc2c(ccc3c2O[C@@H]2COc4cc(OC)c(OC)cc4[C@@H]2C3=O)O1 [ROTENONE] | Not Active | Not Active
C#CCN(C)[C@H](C)Cc1ccccc1 [SELEGILINE] | Not Active | Not Active
C[C@]12CC[C@H]3[C@@H](CCC4=CC(=O)CC[C@@]43C)[C@@H]1CC[C@@H]2O [TESTOSTERONE] | Not Active | Not Active

Reference: ChEMBL document CHEMBL1909046, “DrugMatrix in vitro pharmacology data”
